From the Deep4Chem optical property database
Values joined by “and” are separate entries in the source; they are usually repeats but may differ in a detail not shown here. Identical values can stand only once. Blank lines part the entries; values can stand above or below the compound they belong to.

Experiment: photoluminescence quantum yield (fraction); solvent given as SMILES

photoluminescence quantum yield (in ClC(Cl)Cl): 0.75
Structure (SMILES): CCCCCCCCCCOc1ccc2cc(C3=C4C(=O)N(CC(OCC)OCC)C(c5cc6ccc(OCCCCCCCCCC)cc6o5)=C4C(=O)N3CC(OCC)OCC)oc2c1

Structure (SMILES): COOCc1noc(-c2ccccc2)c1Cl
photoluminescence quantum yield (in C1CCCCC1): 0.006

Structure (SMILES): Cc1ccc(-c2ccc(/C=C/c3cccn3C)cn2)nc1
photoluminescence quantum yield (in C1COCCO1): 0.25
photoluminescence quantum yield (in CC#N): 0.087
photoluminescence quantum yield (in CCCCCC): 0.36
photoluminescence quantum yield (in CCO): 0.2
photoluminescence quantum yield (in CN(C)C=O): 0.19
photoluminescence quantum yield (in CO): 0.18
photoluminescence quantum yield (in CS(C)=O): 0.19
photoluminescence quantum yield (in Cc1ccccc1): 0.25
photoluminescence quantum yield (in ClC(Cl)Cl): 0.25
photoluminescence quantum yield (in c1ccccc1): 0.25

photoluminescence quantum yield (in ClCCl): 0.18
Structure (SMILES): Cc1cc(-c2ccc(C(C)(C)C)cc2)c2nsnc2c1-c1ccc(N(c2ccccc2)c2ccccc2)cc1

photoluminescence quantum yield (in ClCCl): 0.047
Structure (SMILES): Cc1cc2cc(C)c3c4ccccc4[nH]c3c2s1

photoluminescence quantum yield (in ClCCl): 0.72
Structure (SMILES): CN(C)c1cc(-c2ccccc2)cc2cc(C#Cc3ccncc3)ccc12

Structure (SMILES): CC(C)(C)c1ccc(-c2cc3c4c(c2)CCc2cc(-c5ccc(C(C)(C)C)cc5)cc(c2-4)CC3)cc1
photoluminescence quantum yield (in C1CCCCC1): 0.61
photoluminescence quantum yield (in C1CCOC1): 0.68
photoluminescence quantum yield (in CC#N): 0.55
photoluminescence quantum yield (in CCCCCC): 0.52
photoluminescence quantum yield (in CCO): 0.48
photoluminescence quantum yield (in CN(C)C=O): 0.66
photoluminescence quantum yield (in CO): 0.39
photoluminescence quantum yield (in Cc1ccccc1): 1
photoluminescence quantum yield (in ClC(Cl)Cl): 0.53
photoluminescence quantum yield (in ClCCl): 1

Structure (SMILES): CSC1=C2C=C(c3cc4n(c3)[B-](F)(F)[N+]3=CC=CC3=C4c3c(C)cc(C)cc3C)C(C)=[N+]2[B-](F)(F)n2c(C)ccc21
photoluminescence quantum yield (in C1CCCCC1): 0.83
photoluminescence quantum yield (in CC#N): 0.01
photoluminescence quantum yield (in CC(C)=O): 0.01
photoluminescence quantum yield (in CCOC(C)=O): 0.19
photoluminescence quantum yield (in Cc1ccccc1): 0.57

photoluminescence quantum yield (in C1CCOC1): 0.039
Structure (SMILES): O=Cc1ccc(C=C(c2ccccc2)c2ccccc2)cc1

photoluminescence quantum yield (in CS(C)=O): 0.136
Structure (SMILES): CCOC(=O)C1=C(N)n2c(=O)c3ccccc3c(=O)n2C1c1ccccc1 (stereo unspecified)

photoluminescence quantum yield (in ClCCl): 0.16
Structure (SMILES): CCCCCCN1C(=O)c2cccc3c(-c4ccc(-c5cc(-c6cccc7ccccc67)nn5-c5ccccc5)s4)ccc(c23)C1=O

photoluminescence quantum yield (in C1CCCCC1): 0.09
Structure (SMILES): COc1ccc(C2=C(c3ccc(OC)cc3)C(C)(C)c3ccccc32)cc1

photoluminescence quantum yield (in CC#N): 0.0077
photoluminescence quantum yield (in O): 0.003
Structure (SMILES): Nc1n[n+]([O-])c2cc(F)ccc2[n+]1[O-]

photoluminescence quantum yield (in ClC(Cl)Cl): 0.14
Structure (SMILES): CC1=CC(C)=[N+]2C1=C(c1ccc(I)cc1)c1c(C)cc(C)n1[B-]21OCCO1

photoluminescence quantum yield (in CC1CCCCC1): 0.5
photoluminescence quantum yield (in CC#N): 0.37
photoluminescence quantum yield (in CO): 0.13
Structure (SMILES): COC(=O)C(NC(=O)OC(C)(C)C)c1ccc2oc(-c3cccc(Oc4ccccc4)c3)nc2c1 (stereo unspecified)

photoluminescence quantum yield (in ClCCl): 0.262
Structure (SMILES): COC(=O)c1[nH]c(-c2ccc([N+](=O)[O-])cc2)c2nnc3ccc(OC)cc3c12

photoluminescence quantum yield (in ClCCl): 0.136
Structure (SMILES): Oc1ccc2ccccc2c1-c1nc(-c2ccccc2)c2ccccn12

photoluminescence quantum yield (in C1CCCCC1): 0.38
photoluminescence quantum yield (in CC#N): 0.26
photoluminescence quantum yield (in CO): 0.33
photoluminescence quantum yield (in ClCCl): 0.41
Structure (SMILES): COc1c2ccccc2c(OC)c2c1c1c(F)cccc1n2C

photoluminescence quantum yield (in ClC(Cl)Cl): 0.37
Structure (SMILES): CCCCCCCCCCOc1cc(OCCCCCCCCCC)cc(C2=C3C(C)=CC(/C=C/c4ccc(OC)cc4)=[N+]3[B-](F)(F)n3c(/C=C/c4ccc(OC)cc4)cc(C)c32)c1

photoluminescence quantum yield (in ClCCl): 0.56
Structure (SMILES): C(=C\c1cc(/C=C/c2ccc(N(c3ccccc3)c3ccccc3)cc2)nc(/C=C/c2ccc(N(c3ccccc3)c3ccccc3)cc2)n1)/c1ccc(N(c2ccccc2)c2ccccc2)cc1

photoluminescence quantum yield (in c1cc(-c2cccc(-n3c4ccccc4c4ccccc43)c2)cc(-n2c3ccccc3c3ccccc32)c1): 0.42
Structure (SMILES): CC1(C)c2ccccc2N(c2ccc3c(c2)c2ccccc2c2nc4ccccc4nc32)c2ccccc21

Structure (SMILES): N#Cc1c(-n2c3ccccc3c3ccccc32)c(-n2c3ccccc3c3ccccc32)c(C#N)c(-n2c3ccccc3c3ccccc32)c1-n1c2ccccc2c2ccccc21
photoluminescence quantum yield (in Cc1ccccc1): 0.716 and 0.72

photoluminescence quantum yield (in ClC(Cl)Cl): 0.25
Structure (SMILES): CC(C)c1cccc(C(C)C)c1-n1c(=O)c2cc3nc(-c4ccccc4)c4cc5c(=O)n(-c6c(C(C)C)cccc6C(C)C)c(=O)c6cc7nc(-c8ccccc8)c8cc(c1=O)c2c1c3c4c(c65)c7c81

photoluminescence quantum yield (in CCO): 0.93
Structure (SMILES): COc1ccc(C(=O)OCc2ccc3c4cccc5cccc(c6cccc2c63)c54)cc1

Structure (SMILES): CCCCCCc1ccc(-n2c3c4cccc(OC)c4nnc3c3c2c2nnc4c(OC)cccc4c2n3-c2ccc(CCCCCC)cc2)cc1
photoluminescence quantum yield (in Cc1ccccc1): 0

photoluminescence quantum yield (in CC#N): 0.32
photoluminescence quantum yield (in CCO): 0.56
photoluminescence quantum yield (in CO): 0.55
photoluminescence quantum yield (in ClC(Cl)Cl): 0.54
Structure (SMILES): CCNc1cc2c(cc1C)C(c1ccccc1C(=O)O)=C1CCCC(/C=C/C3=[N+](C)c4ccccc4C3(C)C)=C1O2

Structure (SMILES): COc1ccc(/C=C/c2ccccc2)cc1OC
photoluminescence quantum yield (in C1CCCCC1): 0.06
photoluminescence quantum yield (in CC#N): 0.035
photoluminescence quantum yield (in CC(C)O): 0.041
photoluminescence quantum yield (in CCCCOCCCC): 0.05
photoluminescence quantum yield (in CCOC(C)=O): 0.046
photoluminescence quantum yield (in CCOCC): 0.051

Structure (SMILES): CC(=O)c1nc(-c2ccc(N(c3ccccc3)c3ccccc3)cc2)oc1C
photoluminescence quantum yield (in CC#N): 0.486
photoluminescence quantum yield (in CCO): 0.264
photoluminescence quantum yield (in CCOC(C)=O): 0.659
photoluminescence quantum yield (in CCOCC): 0.886
photoluminescence quantum yield (in ClCCl): 0.972

Structure (SMILES): N#Cc1c(-n2c3ccccc3c3ccccc32)cc(N2c3ccccc3C(c3ccccc3)(c3ccccc3)c3ccccc32)cc1-n1c2ccccc2c2ccccc21
photoluminescence quantum yield (in Cc1ccccc1): 0.27

photoluminescence quantum yield (in C1COCCO1): 0.19
photoluminescence quantum yield (in CC#N): 0.01
photoluminescence quantum yield (in ClCCl): 0.17
Structure (SMILES): CN(C)c1ccc(/C=C/c2nc3ccc(Br)cc3nc2-c2ccccc2)cc1

photoluminescence quantum yield (in CC#N): 0.996
Structure (SMILES): COc1ccc(-n2nc(C#N)c(N3CCCC3)n2)cc1OC

photoluminescence quantum yield (in ClCCl): 0.0269
Structure (SMILES): C#Cc1ccc(-c2c3nc(c(-c4ccc(C#C)cc4)c4ccc([nH]4)c(-c4cc(C(C)(C)C)cc(C(C)(C)C)c4)c4cc(c(-c5cc(C(C)(C)C)cc(C(C)(C)C)c5)c5ccc2[nH]5)C=N4)C=C3)cc1

photoluminescence quantum yield (in ClCCl): 0.72
Structure (SMILES): C(#Cc1ccc(-n2c3ccccc3c3ccccc32)cc1)c1ccccc1

photoluminescence quantum yield (in C1CCOC1): 0.17
Structure (SMILES): F[Si](c1ccccc1)(c1c2ccccc2cc2ccccc12)c1c2ccccc2cc2ccccc12

photoluminescence quantum yield (in ClCCl): 0.38
Structure (SMILES): COc1cc(C)c(-c2cc(-c3c(C)cc(OC)cc3C)c3ccc4c(-c5c(C)cc(OC)cc5C)cc(-c5c(C)cc(OC)cc5C)c5ccc2c3c54)c(C)c1

photoluminescence quantum yield (in CC#N): 0.016
photoluminescence quantum yield (in CC(C)O): 0.008
photoluminescence quantum yield (in CCO): 0.0007
photoluminescence quantum yield (in CCOC(C)=O): 0.028
photoluminescence quantum yield (in CO): 0.0002
Structure (SMILES): Nc1ccc2c(c1)C(=O)c1ccc(N)cc1C2=O

photoluminescence quantum yield (in ClC(Cl)Cl): 0.049
Structure (SMILES): F[B-]1(F)OC(c2ccc(Br)cc2)=Cc2c3ccccc3cc[n+]21

photoluminescence quantum yield (in ClC(Cl)Cl): 0.09 and 0.08
Structure (SMILES): C(#Cc1ccccc1)C(C#Cc1ccccc1)=Cc1ccc(C=C(C#Cc2ccccc2)C#Cc2ccccc2)s1

photoluminescence quantum yield (in CC#N): 0.09
photoluminescence quantum yield (in CCCCOCCCC): 0.1
photoluminescence quantum yield (in CO): 0.07
Structure (SMILES): CC(=O)Nc1cc2ccc3cccc4ccc(c1)c2c34

photoluminescence quantum yield (in ClCCl): 0.43
Structure (SMILES): CN(C)c1ccc(C#Cc2cc(C#Cc3ccc(C(F)(F)F)cc3)c3ccc4c(C#Cc5ccc(C(F)(F)F)cc5)cc(C#Cc5ccc(C(F)(F)F)cc5)c5ccc2c3c54)cc1

photoluminescence quantum yield (in ClCCl): 0.14
Structure (SMILES): CC(C)(C)c1ccc(C#Cc2cc3ccc4cc(C#Cc5ccc(C(C)(C)C)cc5)cc5ccc(c2)c3c45)cc1

photoluminescence quantum yield (in CS(C)=O): 0.08
Structure (SMILES): C(/C=C/Nc1ccccc1)=[NH+]c1ccccc1

photoluminescence quantum yield (in ClCCl): 0.59
Structure (SMILES): c1ccc2c(c1)-c1ccccc1[Si]21c2ccccc2-c2cc3c(cc21)-c1ccccc1[Si]31c2ccccc2-c2ccccc21
